What was measured:
Format in all cases: in vivo
Parameters in all cases: fold induction: dose or concentration left out as unconfirmed
Settings in all cases: for fold induction: rates of Table 1 (S7 500)
[1] = system: Contig5023_at, Class III chitinase; assay: GEP, barley DNA chip, probe set 5.3
Description: (§1) Barley plants (cv. Baronesse) were grown in compost-filled pots (diameter: 10 cm) for 10 days in a controlled-environment cabinet under defined light, humidity and temperature conditions (white light, 70% atmospheric humidity, 24° C.). At the time of spray application, the seedlings were approximately 15 cm in size. The test substances selected in this example were molecules which differ markedly in their structure and which have a well documented pronounced safener effect, and other molecules which are known from the literature to have an effect on plant stress and pathogen tolerance (Table 1). The substances were prepared as stock solutions in DMSO (dimethyl sulfoxide) at c=10 mg/ml). This was used for preparing dilutions in water supplemented with 0.2% Agrotin (comprises polyvinyl alcohol, silicones, polysaccharides and pH regulators, manufacturer: Bayer CropScience AG, Monheim, Germany), as wetter, to give the application rates shown in the table. The amount of liquid for the spray application was 800 μl per pot, corresponding to 800 l/ha. For each 800 μl of spray mixture, 16 μl of EC premix: diacetone alcohol=1:6 were additionally added as formulation auxiliaries. The substances listed in Table 1 were applied to the leaves by means of a pneumatic spray pistol. Each substance was sprayed as 2 dosages, and all experiments were carried out as replicates (2 pots per substance). Sprayings with blank formulation without active ingredient were carried out as controls. After 6 hours, the leaves were harvested, frozen in liquid nitrogen and stored at −80° C. until further use. The labeled RNA probes for the DNA chip hybridization were prepared as described in the protocols (Expression Analysis, Technical Manual) from Affymetrix (Affymetrix Inc., 3380 Central Expressway, Santa Clara, Calif., USA). First, total RNA was isolated from in each case 500 mg of the harvested leaves. In each case 10 μg of total RNA was used for the first-strand and second-strand cDNA synthesis. The cDNA was amplified with T7 polymerase and simultaneously labeled with biotin-UTP. In each case, 20 μg of this biotinylated cDNA was employed for the hybridization of the barley genome array (Gene Chip Barleyl, order No.: 511012) from Affymetrix. This DNA microarray comprises DNA sequences of 22 840 genes which are composed of a total of 400 000 EST sequences. Thereafter, the DNA microarrays were washed in the Affymetrix Fluidics Station, stained with streptavidin/phycoerythrin (Molecular Probes, P/N S-866) and scanned with the matching Agilent Laser Scanner (Agilent Gene Array Scanner). The fluorescent data obtained were analyzed with the software Microarray Suite 5 from Affymetrix. After the quality had been checked, all DNA chip analyses were stored in a database. To determine the relative expression values for genes (induction factors, repression factors), test and control chips were compared with each other, and the scoring function set by the Affymetrix software was used as the basis. The 2 biological replications of one experiment were compared in each case with 2 control chips (blank formulation), and the 4 expression values obtained for each gene were used for calculating the median. These medians are shown in the results tables as induction factors. Similarity comparisons of expression profiles from different experiments and cluster analyses were carried out using the software GeneMaths 1.5 from Applied Maths (Applied Maths, Keistraat 120, 9830 Sint-Martens-Latem, Belgium).
(§2) Gene groups from specific metabolic pathways and signal transduction chains were put together by key word search in the annotations, of the genes, which were also provided by Affymetrix, and by Blast analyses (homology comparisons) of the DNA target sequences, i.e. of the positive sequence (identified on the basis of a modified expression profile) identified on the DNA chip, using gene sequences from other organisms, preferably plant organisms, with characterized functions. […]

[2] = system: Contig9556_at, 12-oxophytodienoate reductase 3; assay: GEP, barley DNA chip, probe set 1.8
Description: as §1, §2

[3] = system: Contig2337_at, 12-oxophytodienoate reductase (OPR1); assay: GEP, barley DNA chip, probe set 1.20
Description: as §1, §2

[4] = system: Contig2305_at, Methyljasmonate inducible lipoxygenase; assay: GEP, barley DNA chip, probe set 1.14
Description: as §1, §2

[5] = system: Contig88_x_at, Putative proteinase inhibitor; assay: GEP, barley DNA chip, probe set 2.3
Description: as §1, §2

[6] = system: Contig1737_at, Probable lipoxygenase; assay: GEP, barley DNA chip, probe set 1.15
Description: as §1, §2

[7] = system: Contig6194_a_at, 12-oxophytodienoic acid reductase; assay: GEP, barley DNA chip, probe set 1.7
Description: as §1, §2

[8] = system: Contig3097_at, Allene oxide synthase; assay: GEP, barley DNA chip, probe set 1.3
Description: as §1, §2

[9] = system: Contig5369_at, Pathogen-related protein; assay: GEP, barley DNA chip, probe set 4.2
Description: as §1, §2

[10] = system: Contig2330_x_at, 12-oxophytodienoic acid reductase; assay: GEP, barley DNA chip, probe set 1.19
Description: as §1, §2

[11] = system: Contig12574_at, Putative lipoxygenase; assay: GEP, barley DNA chip, probe set 1.11
Description: as §1, §2

[12] = system: Contig2088_s_at, Bowman-Birk type trypsin inhibitor; assay: GEP, barley DNA chip, probe set 2.1
Description: as §1, §2

[13] = system: HI02E21u_s_at, Lipoxygenase (EC 1.13.11.12); assay: GEP, barley DNA chip, probe set 1.2
Description: as §1, §2

[14] = Hordeum vulgare, topical, barley leaves 6 h after spray application, median induction factor vs control, read-out: Expression value, 5.3 Contig5023_at
[15] = Hordeum vulgare, topical, barley leaves 6 h after spray application, median induction factor vs control, read-out: Expression value, 1.8 Contig9556_at
[16] = Hordeum vulgare, topical, barley leaves 6 h after spray application, median induction factor vs control, read-out: Expression value, 1.20 Contig2337_at
[17] = Hordeum vulgare, topical, barley leaves 6 h after spray application, median induction factor vs control, read-out: Expression value, 1.14 Contig2305_at
[18] = Hordeum vulgare, topical, barley leaves 6 h after spray application, median induction factor vs control, read-out: Expression value, 2.3 Contig88_x_at
[19] = Hordeum vulgare, topical, barley leaves 6 h after spray application, median induction factor vs control, read-out: Expression value, 1.15 Contig1737_at
[20] = Hordeum vulgare, topical, barley leaves 6 h after spray application, median induction factor vs control, read-out: Expression value, 1.7 Contig6194_a_at
[21] = Hordeum vulgare, topical, barley leaves 6 h after spray application, median induction factor vs control, read-out: Expression value, 1.3 Contig3097_at
[22] = Hordeum vulgare, topical, barley leaves 6 h after spray application, median induction factor vs control, read-out: Expression value, 4.2 Contig5369_at
[23] = Hordeum vulgare, topical, barley leaves 6 h after spray application, median induction factor vs control, read-out: Expression value, 1.19 Contig2330_x_at
[24] = Hordeum vulgare, barley leaves 6 h after spray application, median induction factor vs control, read-out: Expression value, 1.11 Contig12574_at
[25] = Hordeum vulgare, topical, barley leaves 6 h after spray application, median induction factor vs control, read-out: Expression value, 2.1 Contig2088_s_at
[26] = Hordeum vulgare, topical, barley leaves 6 h after spray application, median induction factor vs control, read-out: Expression value, 1.2 HI02E21u_s_at
[27] = barley leaves 6 h after spray application, rates of Table 1 (150 g a.i./ha, S7 500), median induction factor vs control

Row | Structure (SMILES) | fold induction [1, 14] | fold induction [2, 15] | fold induction [3, 16] | fold induction [4, 17] | fold induction [5, 18] | fold induction [6, 19] | fold induction [7, 20] | fold induction [8, 21] | fold induction [9, 22] | fold induction [10, 23] | fold induction [11, 24] | fold induction [12, 25] | fold induction [13, 26] | other results
1 | COC(=O)C1=NN(c2ccc(Cl)cc2Cl)C(C)(C(=O)OC)C1 (centres unmarked) [S1, Mefenpyr-dimethyl] | 9.51 | 1 | 4.89 | 1 | 1 | 1 | 12.9 | 1 | 2.35 | 4.03 | 0.5 | 1 | 1 | 
2 | O=C(O)C1=NN(c2ccc(Cl)cc2Cl)C(c2ccc(F)cc2)C1 (centres unmarked) [S2] | 3.18 | 1 | 1 | 1 | 1 | 1 | 4.14 | 1 | 1 | 2.39 | 1 | 1 | 1 | 
3 | CCOC(=O)C1=NOC(c2ccccc2)(c2ccccc2)C1 [S3, Isoxadifen-ethyl] |  |  |  |  |  |  |  |  |  |  |  |  |  | fold induction at 150 g/ha ([1]; Hordeum vulgare, topical, 6 h, read-out: Expression value, 5.3 Contig5023_at): 1; fold induction at 150 g/ha ([2]; Hordeum vulgare, topical, 6 h, read-out: Expression value, 1.8 Contig9556_at): 3.03; fold induction at 150 g/ha ([3]; Hordeum vulgare, topical, 6 h, read-out: Expression value, 1.20 Contig2337_at): 1; fold induction at 150 g/ha ([4]; Hordeum vulgare, topical, 6 h, read-out: Expression value, 1.14 Contig2305_at): 2.14; fold induction at 150 g/ha ([5]; Hordeum vulgare, topical, 6 h, read-out: Expression value, 2.3 Contig88_x_at): 4.53; fold induction at 150 g/ha ([6]; Hordeum vulgare, topical, 6 h, read-out: Expression value, 1.15 Contig1737_at): 1; fold induction at 150 g/ha ([7]; Hordeum vulgare, topical, 6 h, read-out: Expression value, 1.7 Contig6194_a_at): 3.25; fold induction at 150 g/ha ([8]; Hordeum vulgare, topical, 6 h, read-out: Expression value, 1.3 Contig3097_at): 8.51; fold induction at 150 g/ha ([9]; Hordeum vulgare, topical, 6 h, read-out: Expression value, 4.2 Contig5369_at): 4.76; fold induction at 150 g/ha ([10]; Hordeum vulgare, topical, 6 h, read-out: Expression value, 1.19 Contig2330_x_at): 1; fold induction at 150 g/ha ([11]; Hordeum vulgare, 6 h, read-out: Expression value, 1.11 Contig12574_at): 2.81; fold induction at 150 g/ha ([12]; Hordeum vulgare, topical, 6 h, read-out: Expression value, 2.1 Contig2088_s_at): 4.26; fold induction at 150 g/ha ([13]; Hordeum vulgare, topical, 6 h, read-out: Expression value, 1.2 HI02E21u_s_at): 40.8
4 | CCCCCC(C)OC(=O)COc1ccc(Cl)c2cccnc12 (centres unmarked) [S4, Cloquintocet-mexyl] | 1 | 1 | 1 | 1 | 1 | 1 | 2.17 | 1 | 1 | 2.83 | 1 | 1 | 1 | 
5 | CCOC(=O)C(Oc1ccc(Cl)c2cccnc12)C(=O)OCC [S5] | 2.73 | 1 | 1 | 1 | 1 | 1 | 2.81 | 1 | 1 | 1 | 1 | 1 | 1 | 
6 | NC(=O)c1ccc(C(F)(F)F)nc1O [S6] | 1 | 1 | 1 | 1 | 1 | 1 | 3.16 | 1 | 1 | 2.55 | 1 | 1 | 1 | 
7 | O=C(NO)c1ccccc1O [S7, Salicyl hydroxamate] |  |  |  |  |  |  |  |  |  |  |  |  |  | Expression value, 5.3 Contig5023_at [1, 27]: 1.00 x times; Expression value, 1.8 Contig9556_at [2, 27]: 1.00 x times; Expression value, 1.20 Contig2337_at [3, 27]: 1.00 x times; Expression value, 1.14 Contig2305_at [4, 27]: 41.07 x times; Expression value, 2.3 Contig88_x_at [5, 27]: 21.86 x times; Expression value, 1.15 Contig1737_at [6, 27]: 1.00 x times; Expression value, 1.7 Contig6194_a_at [7, 27]: 1.00 x times; Expression value, 1.3 Contig3097_at [8, 27]: 1.00 x times; Expression value, 4.2 Contig5369_at [9, 27]: 1.00 x times; Expression value, 1.19 Contig2330_x_at [10, 27]: 1.00 x times; Expression value, 1.11 Contig12574_at [11, 27]: 1.00 x times; Expression value, 2.1 Contig2088_s_at [12, 27]: 4.79 x times; Expression value, 1.2 HI02E21u_s_at [13, 27]: 1.00 x times
8 | CSC(=O)c1cccc2nnsc12 [S8, Acibenzolar-S-methyl] | 1 | 1 | 1 | 81.6 | 22.9 | 1 | 1 | 2.11 | 1 | 1 | 2.11 | 7.36 | 1 | 
